Laboratory results reported in article PMC8162438, “Cancer cell-selective modulation of mitochondrial respiration and metabolism by potent organogold(III) dithiocarbamates” (Chemical Science, 2020).

System: MRC5
Assay: MTT cell viability, human fetal lung fibroblasts MRC5
Format: cell-based
Conditions: 72 h
Procedure: All the gold(III) dithiocarbamate compounds display remarkable cell killing potential in a panel of breast, ovarian, lung and leukemia cancers. Preliminary studies focused on different cancer cell lines (MDA-MB-231, MDA-MB-175, and A2780), an immortalized normal retinal epithelial cell line (RPE-NEO) and human fetal lung fibroblasts (MRC5) (Fig. S111–S129 ^†). These adherent cells were exposed to a serial-diluted concentration of all ten compounds for 72 h. The cells were subsequently treated with 3-(4,5-dimethylthiazol-2-yl)-2,5-diphenyltetrazolium bromide (MTT) solutions, dissolved with DMSO and the absorbance at 570 nm was measured with a plate-reader.
In Vitro Biological Assays
Cell Culture. All cell lines were purchased from ATCC and routinely grown in a humidified incubator at 37 °C with 5-10% CO 2. MDA-MB-231, MDA-MB-175, MRC5, RPE-NEO, H460, and K562 were grown in DMEM supplemented with 10% FBS, 1% amphotericin and 1% penicillin/streptomycin. A2780 cells were grown in RPMI supplemented with 10% FBS, 1% amphotericin, and 1% penicillin/streptomycin, and 4 mM glutamine. All supplements along with PBS and trypsin-EDTA were purchased from Corning Inc. and used as is. […]
Cell Viability of 1a-1e and 2a-2e (Adherent Cell Lines). The cell viability of all 10 complexes were performed in MDA-MB-231, MDA-MB-175, A2780, RPE-NEO and MRC5. The cell viability of compound 2a was also determined in H460. Cells were grown to confluency and trypsin was added to detach and harvest cells. The cells were washed with 2 mL of PBS and suspended in 10 mL of the appropriate media. The cells were centrifuged at 2000 rpm for 5 minutes and the pellet washed with 2 mL of PBS then suspended in 5 mL of the appropriate […]
media. The cells were plated at a density of 2,000 cells/well in a 96-well clear bottom plate and allowed to adhere overnight at 37 °C with 5-10% CO 2. The compounds were prepared as a stock in DMSO and used fresh. The compounds were added at seven concentrations with a 3x serial dilution starting at 50 µM for the highest concentration and incubated at 37 °C for 72 h with 5-10% CO 2. The medium was removed and a solution of MTT (100 µL, prepared by dissolving MTT at 5 mg/mL and diluting by 10x with DMEM) was added to each well and incubated for 4 h at 37 ° C with 5-10% CO 2. The dye was removed from each well and 100 µL of DMSO was added to induce cell lysis. The plates were read using a Genios plate reader (λ = 570 nm). The experiment was performed in triplicate and data are plotted as the mean ± s.e.m. (n = 3). Data for 2a can be found in the main text (Figure 6) and the other complexes can be seen in the supplementary figures (S111 – S129). […]
Cells were grown to confluency and centrifuged at 2000 rpm for 5 minutes to collect the cell pellet. The cells were washed with 5 mL of PBS, suspended in 5 mL of DMEM, and centrifuged again at 2000 rpm for 5 minutes to collect the pellet. The pellet was then washed with 2 mL of PBS and suspended in 5 mL of DMEM. The cells were plated at density of 2,000 cells/well in a 96-well white bottom plate. 2a was prepared as a stock solution […]
10% CO 2. The cells were removed from the incubator and allowed to rest at room temperature for 30 minutes. To each designated well was then added 20 µL of CellTiter-Glo solution and orbitally shaken for 5 minutes and the luminescence (1000 ms integration and 150 ms gain) acquired on a Genios plate reader. The experiment was performed in triplicate. Data are plotted […]
Apoptosis Analysis. […]
A stock of 2a was prepared fresh in DMSO and added to the desired well at a concentration of 1 µM with a final volume of 2.5 mL and incubated for 4 h at 37 °C. A stock of H2O2 was prepared in PBS and the cells treated at a final concentration of 2 mM for 1 hour as a […]

SMILES	IC50
CC[N+](CC)=C1[S][Au-2]2([S]1)[c]1ccccc1C(=O)c1cccc[n+]12.F[P-](F)(F)(F)(F)F (centres unmarked) [1b]	> 50 µM
F[P-](F)(F)(F)(F)F.O=C1c2cccc[c]2[Au-2]2([S]C(=[N+]3CCCCC3)[S]2)[n+]2ccccc21 (centres unmarked) [1c]	> 50 µM
F[P-](F)(F)(F)(F)F.O=C1c2cccc[c]2[Au-2]2([S]C(=[N+]3CCN(c4ccc(Br)cc4)CC3)[S]2)[n+]2ccccc21 (centres unmarked) [1d]	> 50 µM
COc1ccc(N2CC[N+](=C3[S][Au-2]4([S]3)[c]3ccccc3C(=O)c3cccc[n+]34)CC2)cc1.F[P-](F)(F)(F)(F)F (centres unmarked) [1e]	> 50 µM
CC[N+](CC)=C1[S][Au-2]2([S]1)[c]1ccccc1Cc1cccc[n+]12.F[P-](F)(F)(F)(F)F (centres unmarked) [2b]	> 50 µM
F[P-](F)(F)(F)(F)F.c1cc[c]2c(c1)Cc1cccc[n+]1[Au-2]21[S]C(=[N+]2CCCCC2)[S]1 (centres unmarked) [2c]	> 50 µM
Brc1ccc(N2CC[N+](=C3[S][Au-2]4([S]3)[c]3ccccc3Cc3cccc[n+]34)CC2)cc1.F[P-](F)(F)(F)(F)F (centres unmarked) [2d]	> 50 µM
COc1ccc(N2CC[N+](=C3[S][Au-2]4([S]3)[c]3ccccc3Cc3cccc[n+]34)CC2)cc1.F[P-](F)(F)(F)(F)F (centres unmarked) [2e]	> 50 µM
